Holding throughout (assay): Kinase panel profiling at 1 µmol/L (mobility shift assay, Carna)
What all share (type): biochemical
What all share (conditions): 1 µmol/L of BTK inhibitor

One assay addresses T1, HIPK3 (Homo sapiens, UniProt Q9H422).
T1 construct: purchased Carna Biosciences

The target in another assay is T2, NEK9 (Homo sapiens, UniProt Q8TD19).
T2 construct: purchased Carna Biosciences
T2 sequence (Q8TD19 1-979): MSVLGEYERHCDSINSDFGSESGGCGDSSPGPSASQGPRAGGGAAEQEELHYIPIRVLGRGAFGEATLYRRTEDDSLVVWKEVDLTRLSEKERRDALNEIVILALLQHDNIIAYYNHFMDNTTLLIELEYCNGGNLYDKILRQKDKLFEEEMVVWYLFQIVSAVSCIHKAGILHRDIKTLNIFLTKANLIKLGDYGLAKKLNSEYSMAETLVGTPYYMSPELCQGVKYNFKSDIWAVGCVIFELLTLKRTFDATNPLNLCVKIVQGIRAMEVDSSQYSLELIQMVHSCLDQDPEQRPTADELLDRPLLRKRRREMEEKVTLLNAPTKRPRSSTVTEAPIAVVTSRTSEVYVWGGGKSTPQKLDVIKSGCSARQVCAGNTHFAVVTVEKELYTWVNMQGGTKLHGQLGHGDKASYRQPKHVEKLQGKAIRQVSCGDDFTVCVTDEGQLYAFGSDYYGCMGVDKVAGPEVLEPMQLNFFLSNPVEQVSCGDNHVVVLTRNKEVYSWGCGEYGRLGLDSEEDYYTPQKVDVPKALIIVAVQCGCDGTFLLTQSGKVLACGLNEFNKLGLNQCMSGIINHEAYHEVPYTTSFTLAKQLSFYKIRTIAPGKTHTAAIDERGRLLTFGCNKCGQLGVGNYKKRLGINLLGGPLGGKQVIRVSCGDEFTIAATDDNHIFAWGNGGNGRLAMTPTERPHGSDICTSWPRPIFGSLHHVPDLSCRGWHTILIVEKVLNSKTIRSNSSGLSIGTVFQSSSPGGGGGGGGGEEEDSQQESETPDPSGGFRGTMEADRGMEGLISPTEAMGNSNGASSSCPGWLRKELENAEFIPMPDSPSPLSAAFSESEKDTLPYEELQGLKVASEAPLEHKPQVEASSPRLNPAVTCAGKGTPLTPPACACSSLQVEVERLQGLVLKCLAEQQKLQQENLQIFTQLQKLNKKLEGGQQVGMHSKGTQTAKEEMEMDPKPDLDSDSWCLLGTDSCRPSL

The next assay addresses T3, MSK2 (Homo sapiens, UniProt O75676).
T3 construct: purchased Carna Biosciences

The target in a further assay is T4, DYRK1A (Homo sapiens, UniProt Q13627).
T4 construct: purchased Carna Biosciences

In the next assay the target is T5, EPHA6 (Homo sapiens, UniProt Q9UF33).
T5 construct: purchased Carna Biosciences
T5 sequence (Q9UF33 23-1036): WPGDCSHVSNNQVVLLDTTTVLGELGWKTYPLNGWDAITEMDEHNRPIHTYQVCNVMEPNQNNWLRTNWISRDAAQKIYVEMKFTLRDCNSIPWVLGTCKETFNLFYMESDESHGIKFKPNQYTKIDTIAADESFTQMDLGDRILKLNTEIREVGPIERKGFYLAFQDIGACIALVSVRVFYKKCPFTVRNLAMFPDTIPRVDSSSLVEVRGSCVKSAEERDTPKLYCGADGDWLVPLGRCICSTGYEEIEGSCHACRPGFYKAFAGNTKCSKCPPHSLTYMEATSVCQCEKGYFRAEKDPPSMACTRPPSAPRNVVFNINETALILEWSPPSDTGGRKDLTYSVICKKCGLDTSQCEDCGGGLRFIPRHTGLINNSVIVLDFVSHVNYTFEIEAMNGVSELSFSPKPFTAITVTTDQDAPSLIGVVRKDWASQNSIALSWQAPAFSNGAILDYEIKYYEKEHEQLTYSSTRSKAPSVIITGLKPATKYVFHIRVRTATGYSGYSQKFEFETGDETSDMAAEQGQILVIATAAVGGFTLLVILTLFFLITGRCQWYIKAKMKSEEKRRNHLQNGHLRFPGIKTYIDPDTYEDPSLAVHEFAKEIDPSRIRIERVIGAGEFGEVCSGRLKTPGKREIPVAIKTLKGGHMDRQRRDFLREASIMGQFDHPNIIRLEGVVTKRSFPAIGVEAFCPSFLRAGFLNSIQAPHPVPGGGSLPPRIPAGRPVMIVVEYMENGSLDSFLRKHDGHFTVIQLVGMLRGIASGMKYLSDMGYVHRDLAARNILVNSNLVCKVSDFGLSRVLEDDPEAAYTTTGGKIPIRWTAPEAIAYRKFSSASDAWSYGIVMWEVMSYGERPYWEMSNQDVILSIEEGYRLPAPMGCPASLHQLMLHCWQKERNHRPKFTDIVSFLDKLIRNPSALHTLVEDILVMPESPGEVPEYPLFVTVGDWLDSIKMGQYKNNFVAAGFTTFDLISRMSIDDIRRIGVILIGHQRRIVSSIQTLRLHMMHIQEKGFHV

Another assay has as its target T6, TBK1 (Homo sapiens, UniProt Q9UHD2).
T6 construct: purchased Carna Biosciences
T6 sequence (Q9UHD2 1-729): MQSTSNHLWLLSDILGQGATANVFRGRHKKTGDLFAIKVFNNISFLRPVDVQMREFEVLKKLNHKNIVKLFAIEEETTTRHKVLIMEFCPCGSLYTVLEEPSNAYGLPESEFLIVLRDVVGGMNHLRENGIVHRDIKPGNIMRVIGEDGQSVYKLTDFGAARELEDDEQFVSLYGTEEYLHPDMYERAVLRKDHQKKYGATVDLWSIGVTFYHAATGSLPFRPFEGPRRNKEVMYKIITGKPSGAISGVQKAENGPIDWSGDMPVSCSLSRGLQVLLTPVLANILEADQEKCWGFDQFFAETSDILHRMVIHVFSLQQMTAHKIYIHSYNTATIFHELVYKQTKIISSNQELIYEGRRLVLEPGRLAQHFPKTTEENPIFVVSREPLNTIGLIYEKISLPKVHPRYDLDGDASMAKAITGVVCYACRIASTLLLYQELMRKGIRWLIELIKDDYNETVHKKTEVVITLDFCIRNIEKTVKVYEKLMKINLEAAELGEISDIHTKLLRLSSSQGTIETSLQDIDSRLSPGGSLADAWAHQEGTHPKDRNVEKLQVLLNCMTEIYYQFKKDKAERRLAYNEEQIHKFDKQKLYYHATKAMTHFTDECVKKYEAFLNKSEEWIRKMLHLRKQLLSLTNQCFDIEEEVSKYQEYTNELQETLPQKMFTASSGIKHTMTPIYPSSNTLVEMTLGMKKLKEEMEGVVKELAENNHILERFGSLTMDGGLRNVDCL

Another assay deals with T7, CK2α1/β (Homo sapiens, UniProt P68400).
T7 construct: purchased Carna Biosciences
T7 sequence (P68400 whole entry): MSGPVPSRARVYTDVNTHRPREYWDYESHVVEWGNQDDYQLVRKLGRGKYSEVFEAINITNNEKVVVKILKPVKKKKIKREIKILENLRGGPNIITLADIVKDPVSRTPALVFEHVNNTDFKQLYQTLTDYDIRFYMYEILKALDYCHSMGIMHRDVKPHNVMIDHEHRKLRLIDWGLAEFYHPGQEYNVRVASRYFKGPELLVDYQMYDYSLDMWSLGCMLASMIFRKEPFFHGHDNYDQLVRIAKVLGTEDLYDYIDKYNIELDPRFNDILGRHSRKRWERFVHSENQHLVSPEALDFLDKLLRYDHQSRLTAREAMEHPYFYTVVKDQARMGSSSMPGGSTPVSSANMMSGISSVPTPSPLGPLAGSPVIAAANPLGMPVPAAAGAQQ
T7 sequence (P67870 whole entry partner): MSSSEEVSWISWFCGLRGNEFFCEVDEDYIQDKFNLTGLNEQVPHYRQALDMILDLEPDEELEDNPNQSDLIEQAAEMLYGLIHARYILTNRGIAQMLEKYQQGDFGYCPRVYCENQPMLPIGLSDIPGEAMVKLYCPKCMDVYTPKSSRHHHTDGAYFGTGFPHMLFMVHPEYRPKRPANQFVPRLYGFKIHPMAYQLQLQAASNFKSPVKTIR

For the next assay, the target named is T8, FLT1 (Homo sapiens, UniProt P17948).
T8 construct: purchased Carna Biosciences
T8 sequence (P17948 27-1338): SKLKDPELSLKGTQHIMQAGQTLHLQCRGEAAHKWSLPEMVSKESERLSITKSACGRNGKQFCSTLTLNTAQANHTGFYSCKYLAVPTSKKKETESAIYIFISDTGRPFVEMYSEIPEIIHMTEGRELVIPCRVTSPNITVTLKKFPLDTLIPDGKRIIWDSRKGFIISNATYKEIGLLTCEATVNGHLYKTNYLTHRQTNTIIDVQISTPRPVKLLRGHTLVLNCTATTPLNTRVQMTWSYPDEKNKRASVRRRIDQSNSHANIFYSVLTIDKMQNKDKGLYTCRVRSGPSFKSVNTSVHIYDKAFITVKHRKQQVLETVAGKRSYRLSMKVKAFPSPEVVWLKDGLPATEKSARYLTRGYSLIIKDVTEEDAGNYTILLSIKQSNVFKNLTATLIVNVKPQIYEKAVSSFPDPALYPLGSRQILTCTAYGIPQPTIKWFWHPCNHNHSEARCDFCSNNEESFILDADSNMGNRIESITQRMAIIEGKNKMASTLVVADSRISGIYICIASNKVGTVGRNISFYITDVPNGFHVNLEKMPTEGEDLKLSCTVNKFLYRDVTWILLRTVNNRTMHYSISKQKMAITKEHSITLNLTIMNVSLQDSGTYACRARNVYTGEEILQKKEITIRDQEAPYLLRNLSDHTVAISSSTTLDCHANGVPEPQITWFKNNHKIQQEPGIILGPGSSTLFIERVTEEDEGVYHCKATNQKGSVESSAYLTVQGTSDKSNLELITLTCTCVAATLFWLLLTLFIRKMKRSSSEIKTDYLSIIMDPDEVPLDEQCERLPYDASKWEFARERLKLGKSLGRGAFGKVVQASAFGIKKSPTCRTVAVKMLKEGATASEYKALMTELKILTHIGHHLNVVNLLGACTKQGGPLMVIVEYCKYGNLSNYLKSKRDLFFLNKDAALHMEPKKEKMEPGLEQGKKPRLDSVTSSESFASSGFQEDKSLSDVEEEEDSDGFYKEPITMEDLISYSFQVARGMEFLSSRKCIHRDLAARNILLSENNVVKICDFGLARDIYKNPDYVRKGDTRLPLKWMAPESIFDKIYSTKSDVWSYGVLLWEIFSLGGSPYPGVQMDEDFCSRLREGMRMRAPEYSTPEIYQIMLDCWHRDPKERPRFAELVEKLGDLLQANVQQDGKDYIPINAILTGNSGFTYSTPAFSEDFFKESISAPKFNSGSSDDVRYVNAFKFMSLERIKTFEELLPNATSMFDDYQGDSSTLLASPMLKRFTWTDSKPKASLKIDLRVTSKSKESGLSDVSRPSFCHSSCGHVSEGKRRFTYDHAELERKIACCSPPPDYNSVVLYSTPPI

T3 sequence (O75676 whole entry): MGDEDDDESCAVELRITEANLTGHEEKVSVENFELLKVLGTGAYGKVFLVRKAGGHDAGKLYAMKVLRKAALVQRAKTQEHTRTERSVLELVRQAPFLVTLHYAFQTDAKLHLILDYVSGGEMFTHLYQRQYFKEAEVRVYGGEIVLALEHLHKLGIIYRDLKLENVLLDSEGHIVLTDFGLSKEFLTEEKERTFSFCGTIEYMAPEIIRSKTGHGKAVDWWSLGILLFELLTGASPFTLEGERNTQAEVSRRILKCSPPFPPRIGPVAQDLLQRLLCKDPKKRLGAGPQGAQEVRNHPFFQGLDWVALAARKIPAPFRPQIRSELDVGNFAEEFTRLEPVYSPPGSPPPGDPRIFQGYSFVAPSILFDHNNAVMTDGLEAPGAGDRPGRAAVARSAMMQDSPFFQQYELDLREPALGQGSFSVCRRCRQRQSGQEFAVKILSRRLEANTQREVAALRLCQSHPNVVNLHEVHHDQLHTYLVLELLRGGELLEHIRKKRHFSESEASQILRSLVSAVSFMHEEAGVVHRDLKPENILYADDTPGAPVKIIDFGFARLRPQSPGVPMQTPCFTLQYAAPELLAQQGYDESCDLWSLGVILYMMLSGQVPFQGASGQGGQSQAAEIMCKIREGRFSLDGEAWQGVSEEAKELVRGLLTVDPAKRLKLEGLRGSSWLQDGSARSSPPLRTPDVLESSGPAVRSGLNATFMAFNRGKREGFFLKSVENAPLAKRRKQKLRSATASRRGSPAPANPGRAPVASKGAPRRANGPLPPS
T1 sequence (Q9H422 whole entry): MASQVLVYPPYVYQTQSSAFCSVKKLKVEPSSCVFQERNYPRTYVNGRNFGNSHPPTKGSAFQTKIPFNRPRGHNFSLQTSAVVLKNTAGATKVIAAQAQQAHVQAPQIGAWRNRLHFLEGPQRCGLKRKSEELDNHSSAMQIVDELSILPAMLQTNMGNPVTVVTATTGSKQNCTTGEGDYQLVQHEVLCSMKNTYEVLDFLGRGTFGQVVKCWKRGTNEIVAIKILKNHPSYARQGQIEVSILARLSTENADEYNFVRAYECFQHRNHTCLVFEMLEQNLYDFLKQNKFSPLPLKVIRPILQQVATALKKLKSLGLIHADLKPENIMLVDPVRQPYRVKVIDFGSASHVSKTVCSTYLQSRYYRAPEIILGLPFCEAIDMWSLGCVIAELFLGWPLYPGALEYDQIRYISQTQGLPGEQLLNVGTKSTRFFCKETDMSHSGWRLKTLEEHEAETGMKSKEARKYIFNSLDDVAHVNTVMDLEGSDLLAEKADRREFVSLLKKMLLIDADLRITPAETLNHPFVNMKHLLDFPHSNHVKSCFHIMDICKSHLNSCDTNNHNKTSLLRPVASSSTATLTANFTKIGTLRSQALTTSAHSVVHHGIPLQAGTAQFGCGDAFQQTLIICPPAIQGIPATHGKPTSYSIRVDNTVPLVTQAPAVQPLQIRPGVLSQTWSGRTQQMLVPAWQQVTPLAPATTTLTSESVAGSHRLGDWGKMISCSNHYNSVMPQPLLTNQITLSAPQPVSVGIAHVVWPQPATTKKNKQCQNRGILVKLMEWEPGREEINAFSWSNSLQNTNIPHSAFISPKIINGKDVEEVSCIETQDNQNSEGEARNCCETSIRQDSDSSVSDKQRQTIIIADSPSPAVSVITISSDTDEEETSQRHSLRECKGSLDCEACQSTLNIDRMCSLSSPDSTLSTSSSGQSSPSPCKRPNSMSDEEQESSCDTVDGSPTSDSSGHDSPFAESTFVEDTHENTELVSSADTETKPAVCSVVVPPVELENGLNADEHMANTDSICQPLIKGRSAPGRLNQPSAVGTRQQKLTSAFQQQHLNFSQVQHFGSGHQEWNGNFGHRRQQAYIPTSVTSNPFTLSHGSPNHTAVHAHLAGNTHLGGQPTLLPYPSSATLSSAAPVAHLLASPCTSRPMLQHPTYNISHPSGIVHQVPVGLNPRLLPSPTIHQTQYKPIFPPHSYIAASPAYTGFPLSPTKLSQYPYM

For the compound `CC#CC(=O)N1CCC[C@H]1c1nc(-c2ccc(C(=O)Nc3ccccn3)cc2)c2c(N)nccn12` [acalabrutinib], the “Percentage inhibition of kinase enzyme activity” value (from here on “Percentage inhibition”) on HIPK3 is listed as -12.04%; on NEK9 it was -3.18%; on MSK2 it was 1.53%; on DYRK1A, -4.57%; on EPHA6 it was -2.37%; on TBK1, 2.14%. Also, the “Percentage inhibition” value is reported as 5.34% on CK2α1/β and -1.14% at FLT1.
Take `COc1ccc(F)cc1C(=O)NCc1ccc(-c2nn([C@@H](C)C(F)(F)F)c(N)c2C(N)=O)cc1` [pirtobrutinib]: the “Percentage inhibition” value is 3.06% on HIPK3; -2.20% on NEK9; 1.57% at MSK2; -2.78% at DYRK1A; 6.36% at EPHA6; 2.58% on TBK1. Further, the entries for the “Percentage inhibition” value on CK2α1/β and at FLT1 were -1.74% and 4.85%, respectively.
Consider `C=CC(=O)N1CCC[C@@H](n2nc(-c3ccc(Oc4ccccc4)cc3)c3c(N)ncnc32)C1` [ibrutinib], for which the “Percentage inhibition” value at HIPK3 is reported as 1.67%; at NEK9, -3.28%; at MSK2 it was -2.09%; on DYRK1A, -3.54%; on EPHA6 it was 92.64%; on TBK1 it was 0.83%. Moreover, the entries for the “Percentage inhibition” value at CK2α1/β and at FLT1 were -11.11% and 72.57%, respectively.
Regarding `O=C(c1ccc(Oc2ccccc2)cc1Cl)c1c[nH]c2ncnc(N[C@@H]3CC[C@@H](CO)OC3)c12` [nemtabrutinib], the “Percentage inhibition” value is given as 5.34% at HIPK3; -0.83% at NEK9; 5.69% at MSK2; -2.18% at DYRK1A; 49.03% at EPHA6; 1.71% at TBK1. Also, the “Percentage inhibition” value on CK2α1/β was -2.75%; on FLT1, 87.14%.
On to `C=CC(=O)N1CCC([C@@H]2CCNc3c(C(N)=O)c(-c4ccc(Oc5ccccc5)cc4)nn32)CC1` [zanubrutinib], for which the “Percentage inhibition” value stood at 0.76% at EPHA6 and 22.02% on FLT1.

Values taken from PMC12586182 (Frontiers in Oncology, 2025).
